Experimental data: US20220370484A1, “NOVEL USE OF NICOTINAMIDE MONONUCLEOTIDE (NMN) AND NICOTINAMIDE RIBOSIDE (NR)” (Senju Pharmaceutical Co., Ltd., priority 2019, published 2022)

Tests used:
Assay type in all cases: in vivo, mouse
[1] = tested on: meibomian gland basal cells; test: Cell proliferation assay through BrdU incorporation staining after eye drop instillation; settings: 1.5 year old WT mice, 5% eye drop (5 μL/eye, 6 times/day, only right eye), 2 weeks, vs Vehicle (phosphate buffered saline)
Description: [table] BrdU (100 mg/kg body weight, Sigma-Aldrich) was intraperitoneally injected 30 minutes prior to harvesting eyelid tissue from a mouse. An eyelid comprising meibomian glands was immobilized with 4% PFA and embedded in paraffin. Antigens were activated by pressurizing a 5 μm thick segment for 2.5 minutes in 10 mM sodium citrate buffer (pH 6.0). After incubating the segment for 24 hours at 4° C. by using an anti-BrdU antibody (1:1000 dilution; Rockland Inc.), the immune response was made visible with 3,3′-diaminobenzidine (DAB) using secondary antibody Envision+ System—HRP Labelled Polymer Anti-Rabbit (Dako). For each tissue segment, BrdU positive cells in the basal cell layer of a meibomian gland were counted on a digital microscope picture captured at 20× magnification. The length of the outer circumference of a meibomian gland acinus was measured with ImageJ software, and the total BrdU positive cell count was normalized with the length of the outer circumference. The BrdU positive cells were counted by using 16 segments per individual.

meibomian gland tissue = test: Lipid stained tissue observation (meibomian gland volume evaluation), whole mount Herxheimer's staining; settings: 1.75 year old WT mice, 5% eye drop (5 μL/eye, 4 times/day, only right eye), 3 months, vs Vehicle (phosphate buffered saline)
Description: Meibomian gland tissue in mice was stained in accordance with the following protocol.
As a preparation method of 100 mL of staining solution, a bottle of stock solution prepared by dissolving Sudan IV to saturate in 100% ethanol was left standing in advance, and 70 mL of as much of the supernatant, 20 mL of 10% NaOH, and 10 mL of ultrapure water were mixed, tumbled for 5 minutes, and centrifuged to allow powder to precipitate. The supernatant was filtered with a 0.45 μm filter and used as a staining solution.
The cervical vertebrae of mice was dislocated, and skin of the head including meibomian glands was sampled. The sample was immersed in 4% paraformaldehyde while keeping the sample flat with a drawing pin, and immobilized using a rotator at 4° C. for 24 hours. The periphery of meibomian glands was trimmed. The meibomian glands were immersed in 50% ethanol by using a rotator at room temperature for 10 minutes, then immersed for 20 minutes in 70% ethanol, and immersed in a staining solution using a rotator at room temperature for 24 hours in a falcon tube. The meibomian glands were then immersed for 10 minutes in 70% ethanol, and washing was repeated several times to confirm that the meibomian glands were stained well. The meibomian glands were immersed for 24 hours in amino alcohol in glycerin prepared by mixing 3.75 mL of 80% amino alcohol with 8.25 mL glycerin. […]

[2] = tested on: lipid components in meibomian glands; test: Lipid analysis of meibomian glands after eye drop instillation (APCI); settings: 1.75 year old WT mice, eye drop instillation 3 months as Example 3, compared to Vehicle (phosphate buffered saline)
Description: (1) The Eye Drop Instillation Experiment is Performed in the Same Manner as Example 3. Meibomian glands are harvested from an eyelid of a euthanized mouse. Two meibomian glands harvested from one of the eyes of each animal are each placed in a glass vial containing 1 mL of chloroform:methanol=2:1 (v/v) solvent mixture for lipid extraction, and lipids are extracted. The extract is relocated into a new vial. The extract can be stored for several months at −20° C. or lower by evaporating the solution under nitrogen. The extract is then dissolved in a suitable solvent, and lipid composition is analyzed by APCI.

Hsd3b6 = test: Measurement of meibomian gland Hsd3b6 enzymatic activity (steroid synthesis activity) after eye drop instillation; settings: 1.5 year old WT mice, 5% eye drop (5 μL/eye, 6 times/day, only right eye), 2 weeks, vs Vehicle (phosphate buffered saline)
Description: The meibomian gland Hsd3b6 enzymatic activity in mice was measured in accordance with the following protocol.
Hank's balanced salt solution (HBSS) was bubbled with […] for 1 hour or more, and dispensed in 2 mL tubes at 200 μL each. The lid was closed while filled with […]. HBSS was warmed with a 37° C. water bath. A reaction incubator was warmed to 37° C., and a micro tube mixer was installed therein.
The main power of a flow liquid scintillation counter (Perkin Elmer, Radiomatic 625TR) was turned on, and the main power of HPLC (Waters, 2795 Separations Module) was turned on to perform setup. Mobile phase A was replaced with water, and mobile phase B was replaced with acetonitrile. Once a column (Kanto Chemical, LiChroCART 250-4, LiChrosphere 100RP-18, particle size: 5 μm, 4 mm I.D.×250 mm) was installed, 40% acetonitrile (ACN) (A: 60%, B: 40%) was flown at 0.7 mL/min. The column oven temperature at this time was set to 40° C.
^3H-DHEA was added to 1 mL of 40% ACN contained in a 2 mL tube, and the mixture was tapped. A microtube was set on an HPLC holder, and single administration was selected. The peak of contaminant produced after 22 minutes was not collected. […]

Compound | BrdU positive cell count in meibomian gland basal cells [1] | meibomian gland volume (meibomian gland tissue) | Lipid components in a meibomian gland [2] | Hsd3b6 enzymatic activity in a meibomian gland (Hsd3b6)
NC(=O)c1ccc[n+]([C@@H]2O[C@H](CO)[C@@H](O)[C@H]2O)c1 [NR, Nicotinamide riboside] | increased significantly | significant increase | normalized | 
Nicotinamide mononucleotide [NMN] | increased significantly | significant increase | normalized | increased significantly
